Results as given in publication PMC3583800, “Identification of active Plasmodium falciparum calpain to establish screening system for Pf-calpain-based drug development” (Malaria Journal, 2013).

Biological target: T1, rPfcal-IIa (Pf-calpain catalytic subdomain IIa) (Plasmodium falciparum, UniProt E5LAD0)
T1 construct: also baculovirus/High Five for the mutation study; monomeric proposed
T1 sequence (E5LAD0 822-1216): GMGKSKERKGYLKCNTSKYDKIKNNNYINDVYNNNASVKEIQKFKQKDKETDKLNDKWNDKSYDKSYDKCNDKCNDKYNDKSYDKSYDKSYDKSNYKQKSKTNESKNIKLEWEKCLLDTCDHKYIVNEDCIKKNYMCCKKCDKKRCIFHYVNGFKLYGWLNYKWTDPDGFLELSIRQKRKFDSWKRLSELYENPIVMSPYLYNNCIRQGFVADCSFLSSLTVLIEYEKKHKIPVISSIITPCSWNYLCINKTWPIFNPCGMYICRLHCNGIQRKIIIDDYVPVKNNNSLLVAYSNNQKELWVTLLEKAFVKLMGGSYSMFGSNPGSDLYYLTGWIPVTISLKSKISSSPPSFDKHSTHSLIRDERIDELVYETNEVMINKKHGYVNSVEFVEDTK
Assay: fluorogenic Suc-LLVY-AMC assay and gelatin zymography
Type: biochemical
Details: 100 μM inhibitor pre-incubated 1 h at 37°C; 20 μM Suc-LLVY-AMC, 100 mM Tris-HCl pH 7.5, 1 mM DTT

CC(C)C[C@H](NC(=O)[C@@H]1O[C@H]1C(=O)O)C(=O)NCCCCNC(=N)N [E-64]
inhibition at 100 μM: enzymatic activity of rPfcal-IIa protein was significantly inhibited by ALLN and E-64
